# Legend:
# Type in all cases: cell-based, human
# transketolase (TKK) = assay: Transketolase activity (NADH oxidation) in PANC-1 lysates; details: PANC-1, 5.5 mM fructose
# Protocol: FIG. 34 depicts quantitation of transketolase activity in pancreatic cancer PANC-1 cells following incubation in 2 mM glucose, 5.5 mM glucose, and 5.5 mM fructose for 24 h, 48 h, and 72 h respectively, in accordance with an embodiment of the present invention.
# The inventors believe that fructose-treatment of pancreatic cancer cells led to an increase in TKK-driven nucleic acid synthesis, and thus fructose-treatment would result in an increase in either PANC-1 TKK expression and/or activity in comparison to equivalent glucose concentrations. Western blot analysis on protein lysates derived from fructose-, and glucose-treated PANC-1 cells were performed (5.5 mM fructose, and glucose for 24, and 48 h as per previous protocol) using a specific TKK antibody, and compared TKK expression in the fructose-, and glucose-treated PANC-1 cells. As depicted in FIG. 33, TKK expression at 24 h, and 48 h in protein lysates derived from 5.5 mM glucose-treated PANC-1 cells was increased in comparison to expression in 2 mM glucose-treated cells. However, highest TKK expression was observed after 5.5 mM fructose treatment at 24 h, and 48 h, and TKK levels were almost 2-fold higher in 5.5 mM fructose-treated, in comparison to 5.5 mM glucose-treated cells (p<0.01). […] After gentle mixing the absorbance of the mixture was measured at 10 min intervals for 2 h at 340 nm. Transketolase activity was then derived from the difference in absorbance at 10, and 80 minutes, and expressed as nmol/min/million cells. […] Pancreatic cancer proliferation rates were then measured using the MTS assay (FIG. 35).
# [1] = system: proliferating cell nuclear antigen (PCNA); assay: PCNA Western blot in PANC-1 cells; details: PANC-1, 5.5 mM sugar, 48 h, compared to 2 mM glucose
# Protocol: FIG. 19 depicts PCNA expression in accordance with an embodiment of the present invention. PANC-1 cells were plated in 2 mM, and 5.5 mM glucose, or 5.5 mM fructose for 48 h, after which proliferating cell nuclear antigen (PCNA) levels were measured by Western blot analysis.
# Additionally, protein extracts were harvested in RIPA buffer from the PANC-1 cells following 2 mM, 5.5 mM glucose-, and fructose-treatment for 48 h, analyzed by Western blot, and immunoblotted using a specific monoclonal antibody to proliferating cell nuclear antigen (PCNA).
# [2] = system: ER positive MCF-7 breast cancer cells; assay: Breast cancer cell proliferation (MTT assay), MCF-7
# Protocol: Estrogen receptor (ER) positive MCF-7, and ER negative MDA-MB231 cells were plated in 5 mM fructose or glucose for times between 8-72 h, and proliferative rates measured using MTT assay. *, p<0.05; **, p<0.01.
# FIG. 5 depicts fructose-mediated increased breast cancer proliferation in accordance with an embodiment of the present invention. ER positive MCF-7, and ER negative MDA-MB231 cells were plated in a range of fructose or glucose concentrations (5-25 mM) for 72 h, after which proliferative rates were measured using an MTT assay. *, p<0.05 for concentrations between 5-25 mM fructose versus glucose.
# Standard media for breast cancer cell culture contain either 5-7 mM (low) and 12-25 mM (high) glucose concentrations. Estrogen receptor (ER) positive MCF-7, and ER negative MDA-MB231 cells were cultured overnight in 2 mM glucose standard DMEM medium containing 10% fetal bovine serum prior to incubation for periods between 8, and 72 hours in standard DMEM medium containing 10% fetal bovine serum, and 5 mM glucose or 5 mM fructose.
# Proliferative rates were then measured in replicate (minimum of 6) aliquot wells of the breast cancer cells grown in glucose, or fructose containing medium. […] In separate experiments, proliferative rates of the MCF-7, and MDA-MB231 breast cancer cells were compared following culture in a range of fructose, and glucose concentrations (2-25 mM) for 72 hours.
# normal pancreas cells = assay: Proliferation of normal pancreas cells (BRDU-uptake, MTS); details: 72 h
# Protocol: FIG. 20 depicts a degree of increased proliferation of normal pancreatic cells in accordance with an embodiment of the present invention. Freshly resected normal pancreas tissues were mechanically and enzymatically dispersed, and cells were pre-incubated in 2 mM glucose prior to treatment with 5.5 mM glucose or fructose for 72 h. BRDU (10 μM) was added to the medium at 60 h, and BRDU-uptake quantified at 72 h.
# In the course of obtaining fresh surgically resected pancreatic cancer tissue, the inventors also obtained some peripherally adjacent “normal” pancreatic tissue and normal tissue from a patient undergoing pancreas resection for complications of chronic pancreatitis. The inventors studied 5 of these “normal” pancreas tissues, and although caveats may exist given that they were derived from pancreases which were involved with another disease entity, the inventors believe they offer a useful comparator for the tumors. […] As before, BRDU (10 µM) was added, after which BRDU-uptake was quantified. In parallel experiments, when sufficient normal pancreatic issue was available, proliferative rates following 72 h incubation in the sugars were also measured using the MTS proliferation assay. […]
structure (smiles),measurement,setting,value
O=C(CO)[C@@H](O)[C@H](O)[C@H](O)CO [fructose],TKK activity higher than 5.5 mM glucose-treated cells,transketolase (TKK); 24 h,2 fold
same,TKK activity higher than 5.5 mM glucose-treated cells,transketolase (TKK); 48 h,3 fold
same,TKK activity higher than 5.5 mM glucose-treated cells,transketolase (TKK); 72 h,1.7 fold
same,PCNA expression,[1],highest PCNA levels
same,proliferative rates in fructose compared to glucose,"[2]; MCF-7, 5 mM fructose vs 5 mM glucose, 8-72 h",higher proliferative rates
same,proliferative rates in 5 mM fructose compared to 25 mM glucose,"[2]; MCF-7, 72 hours, 5 mM fructose vs 5-fold higher glucose (25 mM)",higher proliferative rates
same,"proliferative rates, 5.5 mM glucose vs 5.5 mM fructose",normal pancreas cells,did not differ significantly
